What was measured:
strain ENV425 [1] = experiment: Growth studies on MTBE pathway intermediates; format: cell-based, Nocardia
M. vaccae JOB5 [2] = experiment: Gas chromatography degradation assay, washed cells; format: cell-based, Mycobacterium vaccae; settings: for % Degraded: 30 mg/l, 24 hours, OD550 1.0
Procedure: (§1) Propane-oxidizing microorganisms were grown as described above on either propane, isopropanol, ethanol or acetone, to a cell density of OD550≥0.5. The cells were then collected by centrifugation, washed with BSM, and suspended to an OD550 of 1.0. […] The vials were sealed with Teflon-lined septa and crimp seals and incubated with shaking (250 rpm) at 30° C. for at least 24 hr. Control samples were prepared by adding 50 μl of 10 mM HgCl2 to replicate vials. HgCl2 killed the microorganisms present in the vials allowing these vials to serve as controls. At pre-determined time points, 50 μl of 10 mM HgCl2 were added to the incubating sample to stop the reaction or a sub-sample of the incubating sample was removed for analysis. Degradation of MTBE, ETBE or tert-butyl alcohol (TBA) was measured by gas chromatography.
(§2) Gas chromatography was performed by first removing cells from the samples by centrifugation of the sample vial or the sub-sample. A pre-sealed 2-ml autosampler vial was partially evacuated by inserting a syringe needle through the septa and removing 500 μl of air. Five hundred μl of the clear supernatant fraction of the cell culture were then injected into the vial. The samples were then analyzed by injecting 1 μl of the sample directly into a Varians Model 3400 gas chromatograph equipped with a 30 m Vocol capillary column (Supelco) and a flame ionization detector. The column, injector, and detector were maintained isocratically at 80° C., 200° C., and 225° C., respectively. Standard curves of each compound were generated with aqueous standards of 10 ppm, 25 ppm, 50 ppm, and 100 ppm.

ENV420 = experiment: Gas chromatography degradation assay, washed cells; format: cell-based; settings: 30 mg/l, 24 hours, OD550 1.0
Procedure: as §1, §2

ENV425 [3] = experiment: Gas chromatography degradation assay, washed cells; format: cell-based, Nocardia; settings: 30 mg/l, 24 hours, OD550 1.0
Procedure: as §1, §2

strain ENV425 [4] = experiment: Laboratory-scale membrane bioreactor degradation of MTBE; parameters: species or system Nocardia
Procedure: The BSM feed rate was 1.7 ml/min. to create a hydraulic residence time in the reactor of 2.5 days. The effluent of the reactor passed over the surface of a 100,000 mwt ultra filtration membrane (Model CR250; Raisio Flootek, Molmo, Sweden), at a flow rate of 1.2 to 2.2 ml/min at a pressure of from 1 to 1.5 psi. The retenate containing cells were passed back into the reactor, and the filtrate was discarded as the treated effluent. The reactor was operated at 30° C. at a pH of 7. […] Oxygen concentration within the reactor was monitored by using an Ingold […] and a Cole Palmer model 01971-00 oxygen monitor, and oxygen concentration was maintained at >1% air saturation by adding air or oxygen directly to the reactor.

ENV425 [5] = experiment: Field-scale membrane bioreactor treating MTBE-contaminated groundwater; parameters: species or system Nocardia; settings: for % Removed: continuous operation
Source text: Propane oxidizing bacteria were deployed in a field-scale membrane bioreactor (MBR) system to treat MTBE-contaminated groundwater at an oil refinery. An MBR is a type of suspended growth reactor.
The MBR system used in the present example consisted of a 1000-gallon tank equipped with a variable speed mixer, an air diffuser capable of providing up to 600 ft^3 of air per hour, an automated pH controller, and nutrient and caustic feed systems. Soda ash was used to control pH, and a soluble fertilizer, in this case fish oil emulsion, was used as a nutrient. (Other types of soluble agricultural fertilizer can be used to supply nutrients.) The weight ratio of the nutrient comprised approximately 100 parts carbon:10 parts nitrogen:1 part phosphate. The fertilizer was added continuously to the influent contaminant stream by using a LMI model A771-152S chemical metering pump. The liquid level in the reactor was controlled by using two Dwyer model 603-A level transmitters set to maintain a reactor liquid volume of from 700 to 900 gallons.
The pH was monitored and controlled by using a Rosemount model 1055APH pH analyzer/controller and a Rosemount model 385-2-8-54 pH sensor that measured pH in the reactor. Caustic was added to the influent feed line by using an LMI model A771-152S chemical metering pump. Effluent from the reactor was passed over dual ultrafiltration membranes (Rhone Poulenc model SC37/KO9; 17.22 ft^2 of membrane surface) connected in series, then into a proof tank and then a holding tank prior to discharge into the plant's sewer system.
Operation of the reactor system was initiated by adding 225 gallons of water to the reactor and then adding concentrated BSM solution (see above) to the reactor to create a liquid concentration of 1×BSM. Twenty liters of frozen propane-grown ENV425 that had been grown in a laboratory fermentor in BSM medium with propane as a sole source of carbon and energy was frozen prior to shipment, then thawed and added directly to the water in the reactor. […] After addition to the reactor, the ENV425 was mixed well until dispersed. Then, 1.1 L of isopropanol were added while the reactor was mixing. The reactor was operated for 1.5 days until the culture became turbid. The reactor volume was then increased to 800 gallons, additional BSM was added to a final concentration of 1×BSM and an additional 3.8 L of isopropanol were added.
This initial operation was termed the "batch phase" and was used to ensure equilibration of the reactor prior to initiating continuous feed operation.
Reactor effluent was passed over the ultrafiltration membranes and retenate, containing the propane-oxidizing bacteria, was returned to the reactor. Filtrate was passed to the proof tank, and a portion of the filtrate was pumped back into the reactor to maintain an appropriate liquid volume. This was done because the flux through the membrane (40 gal./day/ft^2 of membrane) was greater than the feed rate to the reactor. Some of the return liquid passed through a spray nozzle at the top of the reactor to control reactor foaming. […] Additionally, periodic samples of the reactor headspace were sampled to estimate MTBE stripping in the reactor.
Isopropanol was used to rapidly increase biomass in the reactor and to maintain high levels of activity by the propane-oxidizing bacteria.

[6] = rat model studies; oral; cited from earlier work
[7] = test system: anaerobic sediment samples; settings: the one active sample; more than 152 days of incubation; cited from earlier work
Acetobacterium woodii = settings: anaerobic; cited from earlier work
Eubacterium limosum = settings: anaerobic; cited from earlier work
M. vaccae JOB5 [8] = experiment: [^14 C]MTBE assay; format: cell-based, Mycobacterium vaccae; settings: propane-grown, OD550 1.0, overnight, 0.5 μCi [^14 C]MTBE (2 μM MTBE)
ENV425 [9] = experiment: [^14 C]MTBE assay; format: cell-based, Nocardia
[10] = test system: TXR mixed culture of naturally-occurring propane-oxidizing bacteria; experiment: [^14 C]MTBE assay; format: cell-based; settings: propane-grown, OD550 1.0, overnight, 0.5 μCi [^14 C]MTBE (2 μM MTBE)
ENV425 [11] = experiment: Degradation of tetrahydrofuran; format: cell-based, Nocardia; settings: propane-grown; OD550 2.0; 40 mg/L; 48 hours; room temperature
Procedure: (§3) To test the ability of propane oxidizing bacteria to degrade other environmentally-significant ether pollutants, ENV425 and a mixed culture of propane oxidizing bacteria from a laboratory bioreactor were incubated with tetrahydrofuran, and the degradation of tetrahydrofuran was measured after 48 hours. Cells of ENV425 and a mixed bioreactor culture of propane-oxidizing bacteria (termed "TXR") were grown in BSM medium with propane as the sole source of carbon and energy, collected by centrifugation, washed with BSM, and suspended in BSM to an optical density at 550 nm of 2.0. Five ml of the cell suspensions were added to 15 mL serum vials, and the vials were sealed with Teflon-lined septa and crimp tops. Vials containing BSM but no cells served as controls. Tetrahydrofuran was injected through the septa to create a final liquid concentration of 40 mg/L. The vials were then incubated at room temperature for 48 hours and analyzed by gas chromatography of subsamples of the vial headspace gas. Gas chromatography was performed as described for MTBE analysis.

[12] = test system: mixed culture of propane-oxidizing bacteria (TXR); experiment: Degradation of tetrahydrofuran; format: cell-based; settings: propane-grown; OD550 2.0; 40 mg/L; 48 hours; room temperature
Procedure: as §3

## CC(O)(CO)C(=O)O (stereo not drawn) [2,3-dihydroxy-2-methyl propionic acid]
Strain ENV425 [1]
  growth of strain ENV425 on the substance: grows on

## CC(C)O [2-propanol]
Strain ENV425 [1]
  growth of strain ENV425 on the substance: does occur

## CCOC(C)(C)C [ETBE, ethyl-tert-butyl ether]
M. vaccae JOB5 [2]; grown on isopropanol
  % Degraded: 80%
M. vaccae JOB5 [2]; grown on propane
  % Degraded: 100%
ENV420; grown on ethanol
  % Degraded: 31%
ENV420; grown on propane
  % Degraded: 0%
ENV425 [3]; grown on isopropanol
  % Degraded: 14%
ENV425 [3]; grown on propane
  % Degraded: 26%

## CC(C)(O)C(=O)O [HIBA, 2-hydroxy isobutyric acid]
Strain ENV425 [1]
  growth of strain ENV425 on the substance: does not grow well

## COC(C)(C)C [MTBE, methyl-tert-butyl ether]
M. vaccae JOB5 [2]; grown on isopropanol
  % Degraded: 93%
M. vaccae JOB5 [2]; grown on propane
  % Degraded: 100%
M. vaccae JOB5 [2]; propane-grown, 518 μM (46 ppm) MTBE, within 24 hr
  degraded % of the added MTBE: 100%
ENV420; grown on ethanol
  % Degraded: 86%
ENV420; grown on propane
  % Degraded: 50%
ENV425 [3]; grown on isopropanol
  % Degraded: 71%
ENV425 [3]; grown on propane
  % Degraded: 67%
Strain ENV425 [4]; 2.5 day hydraulic retention time
  MTBE added to the reactor removed: Greater than 95%
Strain ENV425 [4]; typically
  MTBE stripping from the reactor, of the influent MTBE mass: < 5%
ENV425 [5]; 3/7
  MTBE Loss % (volatilization): 9.6%
ENV425 [5]; 3/25
  MTBE Loss % (volatilization): 0.9%
ENV425 [5]; 4/1
  MTBE Loss % (volatilization): 6.8%
ENV425 [5]; 4/8
  MTBE Loss % (volatilization): 4.6%
ENV425 [5]; 4/15
  MTBE Loss % (volatilization): 2.1%
ENV425 [5]; Averages
  MTBE Loss % (volatilization): 4.5%
ENV425 [5]; 1/29, T-101 MTBE 100 mg/l
  % Removed: 96.4%
ENV425 [5]; 2/2, T-101 MTBE 250 mg/l
  % Removed: 97.9%
ENV425 [5]; 2/12, T-101 MTBE 240 mg/l
  % Removed: 91.7%
ENV425 [5]; 2/16, T-101 MTBE 200 mg/l
  % Removed: 95.3%
ENV425 [5]; 2/19, T-101 MTBE 280 mg/l
  % Removed: 96.1%
ENV425 [5]; 2/26, T-101 MTBE 410 mg/l
  % Removed: 99.6%
ENV425 [5]; 3/1, T-101 MTBE 780 mg/l
  % Removed: 96.9%
ENV425 [5]; 3/4, T-101 MTBE 680 mg/l
  % Removed: 96.5%
ENV425 [5]; 3/7, T-101 MTBE 770 mg/l
  % Removed: 96.1%
ENV425 [5]; 3/11, T-101 MTBE 2000 mg/l
  % Removed: 97.0%
ENV425 [5]; 3/14, T-101 MTBE 1100 mg/l
  % Removed: 92.0%
ENV425 [5]; 3/18, T-101 MTBE 1900 mg/l
  % Removed: 99.5%
ENV425 [5]; 3/21, T-101 MTBE 1600 mg/l
  % Removed: 92.5%
ENV425 [5]; 3/25, T-101 MTBE 1590 mg/l
  % Removed: 97.0%
ENV425 [5]; 3/28, T-101 MTBE 2000 mg/l
  % Removed: 95.4%
ENV425 [5]; 4/1, T-101 MTBE 2200 mg/l
  % Removed: 96.8%
ENV425 [5]; 4/4, T-101 MTBE 2400 mg/l
  % Removed: 98.0%
ENV425 [5]; 4/8, T-101 MTBE 1700 mg/l
  % Removed: 94.6%
ENV425 [5]; Avg., T-101 MTBE 1083 mg/l
  % Removed: 96.2%
ENV425 [5]; during the demonstration
  Loss of MTBE caused by stripping/volatilization, averaged: 4.5%
ENV425 [5]; field and laboratory testing, hydraulic retention time 2.5 to 3.3 days
  influent MTBE degraded: > 90%
ENV425 [5]; throughout the demonstration, MTBE 40 mg/L to >2000 mg/L
  MTBE removal: Greater than 90%
[6]
  no-observable-adverse-effect-level (NOAEL): 100 mg/kg/day
[7]
  transformation of MTBE: about 50%
Acetobacterium woodii
  degradation by resting cells: not degraded
Eubacterium limosum
  degradation by resting cells: not degraded

## CC(C)(C)O [TBA, tertiary-butyl alcohol]
M. vaccae JOB5 [2]; grown on isopropanol
  % Degraded: 11%
M. vaccae JOB5 [2]; grown on propane
  % Degraded: 45%
M. vaccae JOB5 [2]; propane-grown, within 24 hr
  degraded % of the added TBA: 100%
ENV420; grown on ethanol
  % Degraded: 56%
ENV420; grown on propane
  % Degraded: 10%
ENV425 [3]; grown on isopropanol
  % Degraded: 0%
ENV425 [3]; grown on propane
  % Degraded: 23%

## [14CH3]O[14C]([14CH3])([14CH3])[14CH3] [[^14 C]MTBE]
M. vaccae JOB5 [8]
  Percent of added [^14 C] in particulate fraction: 0%
M. vaccae JOB5 [8]; mean (SD) of three
  Percent of added [^14 C] in CO2 fraction: 27(2) Percent
  Percent of added [^14 C] in liquid fraction: 71(2) Percent
ENV425 [9]; env425
  added [^14 C]MTBE converted to ^14 CO2: > 65%
ENV425 [9]; propane-grown, OD550 5.0, overnight, 0.5 μCi [^14 C]MTBE (2 μM MTBE)
  Percent of added [^14 C] in CO2 fraction: 41%
[10]
  Percent of added [^14 C] in particulate fraction: 0%
[10]; mean (SD) of three
  Percent of added [^14 C] in CO2 fraction: 53(1) Percent
  Percent of added [^14 C] in liquid fraction: 46(1.5) Percent

## CC(=O)O [acetic acid]
Strain ENV425 [1]
  growth of strain ENV425 on the substance: does occur

## CC(C)=O [acetone]
Strain ENV425 [1]
  growth of strain ENV425 on the substance: does occur

## CC(=O)CO [hydroxyacetone]
Strain ENV425 [1]
  growth of strain ENV425 on the substance: does occur

## CC(O)C(=O)O (stereo not drawn) [lactic acid]
Strain ENV425 [1]
  growth of strain ENV425 on the substance: grows on

## C=C(C)C(=O)O [methacrylic acid]
Strain ENV425 [1]
  growth of strain ENV425 on the substance: grows on

## C1CCOC1 [tetrahydrofuran]
ENV425 [11]
  tetrahydrofuran degraded: 100%
[12]
  tetrahydrofuran degraded: 100%

Reference: patent US6303366A, “Biodegradation of the gasoline oxygenates” (Envirogen, Inc., priority 1999, dated 2001)
